This test deals with HiBiT-HSD17β13 fusion protein (N-terminal HiBiT-tagged HSD17β13 isoform D) in Huh7 HiBiT-HSD17β13 OE cells. The test is described as follows: Whole-cell Huh7-HSD17B13 HiBiT assay (degrader potency and maximal efficacy, luminescence readout). The class given is cell-based, human. The following applies: 24 hour incubation, geometric mean, * = geometric mean for all forms tested (parent and salt forms); for DC50: read-out: Huh7_HIBIT-HSD17β13_DC50 GMean DC50; for Huh7_HIBIT-HSD17β13_DC50 GMean Asymptote Maximum: max. concentration 1 μM. A digest of the protocol: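 Huh7 cells stably overexpressing N-terminal HiBiT-tagged HSD17β13 isoform D, clone matched to primary hepatocyte expression, were exposed to an 11-point, 1 in 3.162 dilution series (top 1 μM final) for 24 h at 37° C. Lytic HiBiT luminescence was normalised to DMSO and parental-cell controls; DC50 from four-parameter logistic fit, with CellTiter-Glo counter screen.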
Background: The HiBiT peptide binds its large partner to form an active luciferase.

Where a name gives a salt, the structure may show the parent alone.

One may read the DC50 as the concentration at which degradation of the target reaches its halfway point. With `Cc1ccc(C(=O)N2CCN(C3CCN(c4ncc(-c5ccc6cn([C@H]7CC[C@H](CNC(=O)c8cc(F)c(O)c(F)c8F)CC7)nc6c5)cn4)CC3)CC2)cc1N1CCC(=O)NC1=O` [Example 90, N-{[(1r,4r)-4-{6-[2-(4-{4-[3-(2,4-dioxo-1,3-diazinan-1-yl)-4-methylbenzoyl]piperazin-1-yl}piperidin-1-yl)pyrimidin-5-yl]-2H-indazol-2-yl}cyclohexyl]methyl}-2,3,5-trifluoro-4-hydroxybenzamide], the DC50 turned out to be 6.1 nM and the “Huh7_HIBIT-HSD17β13_DC50 GMean Asymptote Maximum” value is reported as 60* %.

With `Cc1ccc(C(=O)N2CCN(CCOc3ncc(-c4ccc5cn(C67CCC(CNC(=O)c8cc(F)c(O)c(F)c8F)(CC6)CC7)nc5c4)cn3)CC2)cc1N1CCC(=O)NC1=O` [Example 91, N-[(4-{6-[2-(2-{4-[3-(2,4-dioxo-1,3-diazinan-1-yl)-4-methylbenzoyl]piperazin-1-yl}ethoxy)pyrimidin-5-yl]-2H-indazol-2-yl}bicyclo[2.2.2]octan-1-yl)methyl]-2,3,5-trifluoro-4-hydroxybenzamide], the DC50 stood at 3.2 nM and the “Huh7_HIBIT-HSD17β13_DC50 GMean Asymptote Maximum” value is 73%.

As to `Cc1ccc(C(=O)N2CCC3(CCC(c4nc(-c5ccc6cn([C@H]7CC[C@H](CNC(=O)c8cc(F)c(O)c(F)c8F)CC7)nc6c5)no4)CC3)CC2)cc1N1CCC(=O)NC1=O` [Example 96, N-({(1r,4r)-4-[6-(5-{3-[3-(2,4-dioxo-1,3-diazinan-1-yl)-4-methylbenzoyl]-3-azaspiro[5.5]undecan-9-yl}-1,2,4-oxadiazol-3-yl)-2H-indazol-2-yl]cyclohexyl}methyl)-2,3,5-trifluoro-4-hydroxybenzamide], the DC50 came to 2.7 nM and the “Huh7_HIBIT-HSD17β13_DC50 GMean Asymptote Maximum” value is reported as 81%.

In the case of `O=C1CCN(c2cnn3cc(CCCN4CCN(c5ccc6cn([C@]78CC[C@](CNC(=O)c9cc(F)c(O)c(F)c9F)(CC7)CC8)nc6c5)CC4)ccc23)C(=O)N1` [Example 97, N-({4-[6-(4-{3-[3-(2,4-dioxo-1,3-diazinan-1-yl)pyrazolo[1,5-a]pyridin-6-yl]propyl}piperazin-1-yl)-2H-indazol-2-yl]bicyclo[2.2.2]octan-1-yl}methyl)-2,3,5-trifluoro-4-hydroxybenzamide, trifluoroacetate salt], the DC50 came to 2.4 nM and the “Huh7_HIBIT-HSD17β13_DC50 GMean Asymptote Maximum” value is 76%.

With `O=C1CCN(c2cnn3cc(CCCN4CCN(c5ncc(-c6ccn7cc([C@]89CC[C@](CNC(=O)c%10cc(F)c(O)c(F)c%10F)(CC8)CC9)nc7c6)cn5)CC4)ccc23)C(=O)N1` [Example 99, N-[(4-{7-[2-(4-{3-[3-(2,4-dioxo-1,3-diazinan-1-yl)pyrazolo[1,5-a]pyridin-6-yl]propyl}piperazin-1-yl)pyrimidin-5-yl]imidazo[1,2-a]pyridin-2-yl}bicyclo[2.2.2]octan-1-yl)methyl]-2,3,5-trifluoro-4-hydroxybenzamide, formate salt], the DC50 amounted to 1.7 nM and the “Huh7_HIBIT-HSD17β13_DC50 GMean Asymptote Maximum” value worked out at 70%.

As to `Cc1ccc(C(=O)N2CCC3(CCC(CN4CCN(c5ccc6cn([C@H]7CC[C@H](CNC(=O)c8cc(F)c(O)c(F)c8F)CC7)nc6c5)CC4)CC3)CC2)cc1N1CCC(=O)NC1=O` [Example 103, N-{[(1r,4r)-4-{6-[4-({3-[3-(2,4-dioxo-1,3-diazinan-1-yl)-4-methylbenzoyl]-3-azaspiro[5.5]undecan-9-yl}methyl)piperazin-1-yl]-2H-indazol-2-yl}cyclohexyl]methyl}-2,3,5-trifluoro-4-hydroxybenzamide, trifluoroacetate salt], the DC50 came to 1.2 nM and the “Huh7_HIBIT-HSD17β13_DC50 GMean Asymptote Maximum” value is 76%.

For `Cc1ccc(C(=O)N2CCC3(CCC(N4CCN(c5ccc6cn([C@H]7CC[C@H](CNC(=O)c8cc(F)c(O)c(F)c8F)CC7)nc6c5)CC4)CC3)C2)cc1N1CCC(=O)NC1=O` (some centres unmarked) [Example 104, N-({(1r,4r)-4-[6-(4-{2-[3-(2,4-dioxo-1,3-diazinan-1-yl)-4-methylbenzoyl]-2-azaspiro[4.5]decan-8-yl}piperazin-1-yl)-2H-indazol-2-yl]cyclohexyl}methyl)-2,3,5-trifluoro-4-hydroxybenzamide, trifluoroacetate salt], the DC50 is 3.6 nM and the “Huh7_HIBIT-HSD17β13_DC50 GMean Asymptote Maximum” value worked out at 78%.

As to `O=C(O)C(F)(F)F.O=C1CCN(c2cnn3cc(CCCN4CCN(c5ncc(-c6ccc7cn(C89CCC(CNC(=O)c%10cc(F)c(O)c(F)c%10F)(CC8)CC9)nc7c6)cn5)CC4)ccc23)C(=O)N1` [Example 105, N-[(4-{6-[2-(4-{3-[3-(2,4-dioxo-1,3-diazinan-1-yl)pyrazolo[1,5-a]pyridin-6-yl]propyl}piperazin-1-yl)pyrimidin-5-yl]-2H-indazol-2-yl}bicyclo[2.2.2]octan-1-yl)methyl]-2,3,5-trifluoro-4-hydroxybenzamide, trifluoroacetate salt], the DC50 was found to be 1.3 nM and the “Huh7_HIBIT-HSD17β13_DC50 GMean Asymptote Maximum” value is 76%.

`O=C1CCN(c2cc(C(=O)N3CCN(CC4CCN(c5ncc(-c6ccc7cn([C@H]8CC[C@H](CNC(=O)c9cc(F)c(O)c(F)c9F)CC8)nc7c6)cn5)CC4)CC3)ccc2Cl)C(=O)N1` [Example 108, N-{[(1r,4r)-4-(6-{2-[4-({4-[4-chloro-3-(2,4-dioxo-1,3-diazinan-1-yl)benzoyl]piperazin-1-yl}methyl)piperidin-1-yl]pyrimidin-5-yl}-2H-indazol-2-yl)cyclohexyl]methyl}-2,3,5-trifluoro-4-hydroxybenzamide]: the DC50 stood at 1.3 nM and the “Huh7_HIBIT-HSD17β13_DC50 GMean Asymptote Maximum” value worked out at 80%.

`Cc1ccc(C(=O)N2CCC3(CCC(N4CCN(c5ccc6cn([C@H]7CC[C@H](CNC(=O)c8cc(F)c(O)c(F)c8)CC7)nc6c5)CC4)CC3)CC2)cc1N1CCC(=O)NC1=O` [Example 109, N-({(1r,4r)-4-[6-(4-{3-[3-(2,4-dioxo-1,3-diazinan-1-yl)-4-methylbenzoyl]-3-azaspiro[5.5]undecan-9-yl}piperazin-1-yl)-2H-indazol-2-yl]cyclohexyl}methyl)-3,5-difluoro-4-hydroxybenzamide]: the DC50 turned out to be 1.1 nM and the “Huh7_HIBIT-HSD17β13_DC50 GMean Asymptote Maximum” value is 81%.

With `O=C1CCN(c2cc(C(=O)N3CCC4(CCC(N5CCN(c6ccc7cn([C@H]8CC[C@H](CNC(=O)c9cc(F)c(O)c(F)c9)CC8)nc7c6)CC5)CC4)CC3)ccc2Cl)C(=O)N1` [Example 110, N-({(1r,4r)-4-[6-(4-{3-[4-chloro-3-(2,4-dioxo-1,3-diazinan-1-yl)benzoyl]-3-azaspiro[5.5]undecan-9-yl}piperazin-1-yl)-2H-indazol-2-yl]cyclohexyl}methyl)-3,5-difluoro-4-hydroxybenzamide], the half-maximal degradation concentration (DC50) was 2.9 nM and the “Huh7_HIBIT-HSD17β13_DC50 GMean Asymptote Maximum” value stood at 77%.

`Cc1ccc(C(=O)N2CCC3(CCC(N4CCN(c5ccc6cn([C@H]7CC[C@H](CNC(=O)c8cc(F)c(O)c(F)c8F)CC7)nc6c5)CC4)CC3)CC2)cc1N1CCC(=O)NC1=O` [Example 111, N-({(1r,4r)-4-[6-(4-{3-[3-(2,4-dioxo-1,3-diazinan-1-yl)-4-methylbenzoyl]-3-azaspiro[5.5]undecan-9-yl}piperazin-1-yl)-2H-indazol-2-yl]cyclohexyl}methyl)-2,3,5-trifluoro-4-hydroxybenzamide, trifluoroacetate salt]: the DC50 is 0.85 nM and the “Huh7_HIBIT-HSD17β13_DC50 GMean Asymptote Maximum” value worked out at 80%.

With `Cc1ccc(C(=O)N2CCC3(CCC(n4cc(-c5ccc6cn([C@H]7CC[C@H](CNC(=O)c8cc(F)c(O)c(F)c8F)CC7)nc6c5)cn4)CC3)CC2)cc1N1CCC(=O)NC1=O` [Example 112, N-({(1r,4r)-4-[6-(1-{3-[3-(2,4-dioxo-1,3-diazinan-1-yl)-4-methylbenzoyl]-3-azaspiro[5.5]undecan-9-yl}-1H-pyrazol-4-yl)-2H-indazol-2-yl]cyclohexyl}methyl)-2,3,5-trifluoro-4-hydroxybenzamide, formate salt], the half-maximal degradation concentration (DC50) came out at 0.97 nM and the “Huh7_HIBIT-HSD17β13_DC50 GMean Asymptote Maximum” value came to 81%.

For `Cc1ccc(C(=O)N2CCC3(CCC(N4CCN(c5ccc6cn([C@H]7CC[C@H](CNC(=O)c8cc(F)c(O)c(F)c8F)CC7)nc6c5)CC4)C3)CC2)cc1N1CCC(=O)NC1=O` (some centres unmarked) [Example 113, N-({(1r,4r)-4-[6-(4-{8-[3-(2,4-dioxo-1,3-diazinan-1-yl)-4-methylbenzoyl]-8-azaspiro[4.5]decan-2-yl}piperazin-1-yl)-2H-indazol-2-yl]cyclohexyl}methyl)-2,3,5-trifluoro-4-hydroxybenzamide, formate salt], the DC50 was 1.4 nM and the “Huh7_HIBIT-HSD17β13_DC50 GMean Asymptote Maximum” value was 79%.

With `Cc1ccc(C(=O)N2CCC(CN3CCN(c4ncc(-c5ccc6cn(C78CCC(CNC(=O)c9cc(F)c(O)c(F)c9F)(CC7)CC8)nc6c5)cn4)CC3)CC2)cc1N1CCC(=O)NC1=O` [Example 114, N-{[4-(6-{2-[4-({1-[3-(2,4-dioxo-1,3-diazinan-1-yl)-4-methylbenzoyl]piperidin-4-yl}methyl)piperazin-1-yl]pyrimidin-5-yl}-2H-indazol-2-yl)bicyclo[2.2.2]octan-1-yl]methyl}-2,3,5-trifluoro-4-hydroxybenzamide], the DC50 came to 2.6 nM and the “Huh7_HIBIT-HSD17β13_DC50 GMean Asymptote Maximum” value worked out at 77%.

`O=C1CCN(c2cnn3cc(CCCN4Cc5ccc(-c6ccc7cn([C@H]8CC[C@H](CNC(=O)c9cc(F)c(O)c(F)c9F)CC8)nc7c6)cc5C4)ccc23)C(=O)N1` [Example 131, N-({(1r,4r)-4-[6-(2-{3-[3-(2,4-dioxo-1,3-diazinan-1-yl)pyrazolo[1,5-a]pyridin-6-yl]propyl}-2,3-dihydro-1H-isoindol-5-yl)-2H-indazol-2-yl]cyclohexyl}methyl)-2,3,5-trifluoro-4-hydroxybenzamide, trifluoroacetate salt]: the DC50 came out at 0.87 nM and the “Huh7_HIBIT-HSD17β13_DC50 GMean Asymptote Maximum” value is given as 78%.

Source of the values: patent US20240238425A1, “HSD17B13 Inhibitors and/or Degraders” (Pfizer Inc., priority 2022, published 2024).
